From patent US20190133968A1, “Applications of benzophenones in preparation of drug” (SHANXI MEDICAL UNIVERSITY, priority 2016, published 2019)

Tested on: DN rats
Assay: type II diabetic nephropathy (DN) rat model (high-sugar high-fat diet + streptozocin)
Assay type: in vivo, SD (Sprague Dawley) rats
Settings: for BUN / CREA / Glycated hemoglobin / Urinary protein / mALB (microalbumin in urine) / ICAM-1 / IL-1β / IL-6 / MDA / NF-κB / SOD / T-AOC / TGF-β1 / TNF-α / Glucose (GLU) / HDL-C / LDL-C / TC / TG / UA / Kidney coefficient / VCAM-1: gavage, 6 weeks; for Urinary protein / mALB (microalbumin in urine): 6-hour urine; for ICAM-1 / IL-1β / IL-6 / MDA / NF-κB / SOD / T-AOC / TGF-β1 / TNF-α / VCAM-1: renal tissues; for Glucose (GLU) / HDL-C / LDL-C / TC / TG / UA: serum; for Kidney coefficient: weights of two kidneys/body weight
Experimental: The solid dispersions are prepared through a solvent method, comprising steps of: respectively precisely weighing LM49, PVPK30 and tween80 with a weight ratio of 1:5:1, and A8, PVPK30 and tween80 with a weight ratio of 1:4:1; dissolving with appropriate absolute ethyl alcohol, continuously stirring, and uniformly mixing; placing on the water bath at 60° C., evaporating and removing the absolute ethyl alcohol, and obtaining a viscous material; placing in the freezer at −20° C., and freezing for 2 hours; taking out from the freezer, then placing in the vacuum drying oven, and drying for 24 hours; after becoming embrittlement, smashing and sieving with a sieve of 80 meshes, and then placing in the dryer for storage.
The healthy adult male SD rats (having a weight of 180-220 g) are fed with the high-sugar and high-fat diet for 4 weeks; the rats are fasting overnight; and streptozocin (STZ) of 40 mg/kg is intraperitoneally injected into the rats. The rats of normal control group are injected with the sodium citrate buffer of same volume; 72 hours later, the rats are fasting for 12 hours. […] During the administration period, the successfully established model rats are still fed with the high-sugar and high-fat diet, while the rats of the normal control group are fed with the normal diet.
After administration for 6 weeks, 6-hour urine of the rats is collected with the metabolism cage.
The rats are fasting overnight and anesthetized intraperitoneally, then the abdominal aorta blood thereof is drawn for measuring the related indexes. The two kidneys of each rat are washed with the normal saline; weights of the kidneys are recorded; and the kidney coefficient (weights of two kidneys/body weight) is calculated. The renal tissues (comprising the glomerulus and renal tubules) at the same part of the left kidney are cut lengthwise and immersed in the 10% neutral formalin for pathomorphology analysis, and the other parts of the left kidney are used for biochemical index measurement; the right kidney is used for mechanism research and stored in the freezer at −80° C.
After successfully establishing the model rats, expect the normal control group (ten rats), the remaining rats are randomly divided into eight groups, wherein each group has twelve rats. The eight groups are respectively the model group, the LM49 solid dispersion low-dose group (with the drug concentration of 3 mg/kg), the LM49 solid dispersion medium-dose group (with the drug concentration of 9 mg/kg), the LM49 solid dispersion high-dose group (with the drug concentration of 27 mg/kg), the A8 solid dispersion low-dose group (with the drug concentration of 3 mg/kg), the A8 solid dispersion medium-dose group (with the drug concentration of 9 mg/kg), the A8 solid dispersion high-dose group (with the drug concentration of 27 mg/kg), and the captopril control group (with the drug concentration of 15 mg/kg).
Administration Way: By Gavage.
The rats of the normal control group and the model group are administrated with the normal saline of 1.0 ml/100 g; the rats of the positive control group, the LM49 solid dispersion high-dose, medium-dose and low-dose groups and the A8 solid dispersion high-dose, medium-dose and low-dose groups are respectively administrated with the drugs of different concentrations, and the administration volume is 1.0 ml/100 g.
The solid dispersions are dissolved by the normal saline; and the rats of the positive control group are administrated with the 0.5% CMC-Na (sodium carboxymethyl cellulose) suspension.
The rats are administrated seven days a week, for totally six weeks.
The IBM SPSS Statistics 20 software is used for data processing, and the data is represented in x±s. The one-way analysis of variance (ANOVA) is adopted for comparison among the groups. According to the homogeneity test results of variance, if the variance is equal, the LSD (least significant difference) test is adopted; if the variance is unequal, the Dunnett's T3 test is adopted. […]

How did the BUN (DN rats, high-dose 27 mg/kg) turn out when `O=C(c1cc(OC(=O)N2CCOCC2)c(OC(=O)N2CCOCC2)cc1Cl)c1cc(Cl)ccc1OC(=O)N1CCOCC1` [A8, 4,5,2′-tris(4-morpholinemethanoyl)-2,5′-dichlorobenzophenone] was run?
The BUN was 10.05 ± 1.61 mmol/L.

And the CREA (DN rats, high-dose 27 mg/kg)?
The CREA was 52.06 ± 1.66 µmol/L.

What about the Glycated hemoglobin (DN rats, high-dose 27 mg/kg) of the same molecule?
Its Glycated hemoglobin is 6.44 ± 0.53^□□● %.

What about the Urinary protein (DN rats, high-dose 27 mg/kg) of the same molecule?
The Urinary protein was 1.42 ± 0.71^□□●●▴ mg/6 h.

And the “mALB (microalbumin in urine)” value (DN rats, high-dose 27 mg/kg)?
Its value is 39.00 ± 7.58^□□●●▴▴ μg/6 h.

And the ICAM-1 (DN rats, high-dose 27 mg/kg)?
The ICAM-1 was 322.5 ± 85.70 pg/mgprog.

What about the IL-1β (DN rats, high-dose 27 mg/kg) of the same molecule?
The IL-1β was 133.45 ± 24.68 pg/mgprog.

What about the IL-6 (DN rats, high-dose 27 mg/kg) of the same molecule?
Its IL-6 is 71.29 ± 14.14^□□● pg/mgprog.

What about the MDA (DN rats, high-dose 27 mg/kg) of the same molecule?
The MDA was 1.42 ± 0.25 nmol/mgprog.

What about the NF-κB (DN rats, high-dose 27 mg/kg) of the same molecule?
Its NF-κB is 298.32 ± 58.92^□□▴▴◯◯ pg/mgprog.

What about the SOD (DN rats, high-dose 27 mg/kg) of the same molecule?
The SOD was 4.37 ± 1.25 U/mgprog.

What about the T-AOC (DN rats, high-dose 27 mg/kg) of the same molecule?
The T-AOC was 1.32 ± 0.17 U/mgprog.

And the TGF-β1 (DN rats, high-dose 27 mg/kg)?
The TGF-β1 was 21.36 ± 4.64^□□●●▴▴ pg/mgprot.

And the TNF-α (DN rats, high-dose 27 mg/kg)?
Its TNF-α is 304.51 ± 73.47^□ pg/mgprog.

What about the “Glucose (GLU)” value (DN rats, high-dose 27 mg/kg) of the same molecule?
Its value is 9.75 ± 2.11^□□●●▴◯ mmol/L.

What about the HDL-C (DN rats, high-dose 27 mg/kg) of the same molecule?
Its HDL-C is 1.20 ± 0.27 mmol/L.

What about the LDL-C (DN rats, high-dose 27 mg/kg) of the same molecule?
The LDL-C was 1.01 ± 0.20^□□●▴ mmol/L.

And the TC (DN rats, high-dose 27 mg/kg)?
The TC was 1.42 ± 0.19^□□●●▴◯ mmol/L.

What about the TG (DN rats, high-dose 27 mg/kg) of the same molecule?
The TG was 0.30 ± 0.08^□□ mmol/L.

What about the UA (DN rats, high-dose 27 mg/kg) of the same molecule?
Its UA is 26.44 ± 5.85^□□●● μmol/L.

And the Kidney coefficient (DN rats, high-dose 27 mg/kg)?
The Kidney coefficient was 0.86 ± 0.05^□ %.

What about the “lesions of the renal tissues” value (DN rats, kidney pathology (HE, Masson staining)) of the same molecule?
Its value is “effectively reduce the lesions of the renal tissues”.

What about the BUN (DN rats, low-dose 3 mg/kg) of the same molecule?
Its BUN is 10.56 ± 1.74 mmol/L.

What about the CREA (DN rats, low-dose 3 mg/kg) of the same molecule?
Its CREA is 54.16 ± 2.95 µmol/L.

What about the Glycated hemoglobin (DN rats, low-dose 3 mg/kg) of the same molecule?
Its Glycated hemoglobin is 8.64 ± 0.45%.

What about the Urinary protein (DN rats, low-dose 3 mg/kg) of the same molecule?
Its Urinary protein is 3.64 ± 0.65^□□ mg/6 h.

What about the “mALB (microalbumin in urine)” value (DN rats, low-dose 3 mg/kg) of the same molecule?
The value was 88.91 ± 10.33^□□ μg/6 h.

What about the ICAM-1 (DN rats, low-dose 3 mg/kg) of the same molecule?
Its ICAM-1 is 339.84 ± 92.15 pg/mgprog.

And the IL-1β (DN rats, low-dose 3 mg/kg)?
The IL-1β was 178.45 ± 31.59 pg/mgprog.

And the IL-6 (DN rats, low-dose 3 mg/kg)?
Its IL-6 is 139.85 ± 55.41^□ pg/mgprog.

And the MDA (DN rats, low-dose 3 mg/kg)?
Its MDA is 1.52 ± 0.38 nmol/mgprog.

And the NF-κB (DN rats, low-dose 3 mg/kg)?
Its NF-κB is 1601.45 ± 206.73^□●● ^ pg/mgprog.

And the SOD (DN rats, low-dose 3 mg/kg)?
Its SOD is 5.57 ± 1.75 U/mgprog.

What about the T-AOC (DN rats, low-dose 3 mg/kg) of the same molecule?
Its T-AOC is 1.39 ± 0.19 U/mgprog.

What about the TGF-β1 (DN rats, low-dose 3 mg/kg) of the same molecule?
Its TGF-β1 is 59.35 ± 7.34^□□ pg/mgprot.

What about the TNF-α (DN rats, low-dose 3 mg/kg) of the same molecule?
Its TNF-α is 485.60 ± 138.80 pg/mgprog.

What about the VCAM-1 (DN rats, low-dose 3 mg/kg) of the same molecule?
The VCAM-1 was 37.85 ± 9.28 pg/mgprog.

And the “Glucose (GLU)” value (DN rats, low-dose 3 mg/kg)?
Its value is 13.11 ± 3.95^□□ mmol/L.

And the HDL-C (DN rats, low-dose 3 mg/kg)?
Its HDL-C is 1.21 ± 0.28 mmol/L.

And the LDL-C (DN rats, low-dose 3 mg/kg)?
The LDL-C was 1.77 ± 0.57^□□ mmol/L.

And the TC (DN rats, low-dose 3 mg/kg)?
The TC was 2.87 ± 0.69^□□ mmol/L.

What about the TG (DN rats, low-dose 3 mg/kg) of the same molecule?
Its TG is 0.39 ± 0.05^□□ mmol/L.

And the UA (DN rats, low-dose 3 mg/kg)?
The UA was 28.22 ± 7.14^□□●● μmol/L.

And the Kidney coefficient (DN rats, low-dose 3 mg/kg)?
Its Kidney coefficient is 1.06 ± 0.05%.

What about the BUN (DN rats, medium-dose 9 mg/kg) of the same molecule?
The BUN was 10.07 ± 2.85 mmol/L.

What about the CREA (DN rats, medium-dose 9 mg/kg) of the same molecule?
Its CREA is 53.06 ± 3.75 µmol/L.

What about the Glycated hemoglobin (DN rats, medium-dose 9 mg/kg) of the same molecule?
The Glycated hemoglobin was 7.33 ± 0.77^□ %.

And the Urinary protein (DN rats, medium-dose 9 mg/kg)?
Its Urinary protein is 2.80 ± 1.02^□□●● mg/6 h.

What about the “mALB (microalbumin in urine)” value (DN rats, medium-dose 9 mg/kg) of the same molecule?
The value was 51.76 ± 9.44^□□●▴ μg/6 h.

And the ICAM-1 (DN rats, medium-dose 9 mg/kg)?
The ICAM-1 was 321.63 ± 82.35 pg/mgprog.

What about the IL-1β (DN rats, medium-dose 9 mg/kg) of the same molecule?
The IL-1β was 155.22 ± 19.45 pg/mgprog.

What about the IL-6 (DN rats, medium-dose 9 mg/kg) of the same molecule?
The IL-6 was 111.69 ± 35.86^□ pg/mgprog.

What about the MDA (DN rats, medium-dose 9 mg/kg) of the same molecule?
The MDA was 1.48 ± 0.16 nmol/mgprog.

And the NF-κB (DN rats, medium-dose 9 mg/kg)?
The NF-κB was 786.93 ± 79.73^□□▴▴● pg/mgprog.

What about the SOD (DN rats, medium-dose 9 mg/kg) of the same molecule?
Its SOD is 5.12 ± 1.41 U/mgprog.

What about the T-AOC (DN rats, medium-dose 9 mg/kg) of the same molecule?
The T-AOC was 1.37 ± 0.31 U/mgprog.

And the TGF-β1 (DN rats, medium-dose 9 mg/kg)?
The TGF-β1 was 27.91 ± 5.90^□□▴▴ pg/mgprot.

What about the TNF-α (DN rats, medium-dose 9 mg/kg) of the same molecule?
Its TNF-α is 321.27 ± 86.34^□ pg/mgprog.

What about the VCAM-1 (DN rats, medium-dose 9 mg/kg) of the same molecule?
Its VCAM-1 is 31.09 ± 5.42 pg/mgprog.

And the “Glucose (GLU)” value (DN rats, medium-dose 9 mg/kg)?
Its value is 11.86 ± 2.96^□□▴ mmol/L.

What about the HDL-C (DN rats, medium-dose 9 mg/kg) of the same molecule?
Its HDL-C is 1.23 ± 0.40 mmol/L.

And the LDL-C (DN rats, medium-dose 9 mg/kg)?
The LDL-C was 1.41 ± 0.33^□□ mmol/L.

What about the TC (DN rats, medium-dose 9 mg/kg) of the same molecule?
Its TC is 2.33 ± 0.58^□□ mmol/L.

What about the TG (DN rats, medium-dose 9 mg/kg) of the same molecule?
Its TG is 0.30 ± 0.07^□□ mmol/L.

What about the UA (DN rats, medium-dose 9 mg/kg) of the same molecule?
Its UA is 27.18 ± 5.37^□□●● μmol/L.

And the Kidney coefficient (DN rats, medium-dose 9 mg/kg)?
The Kidney coefficient was 1.00 ± 0.11%.

And the “effect on resisting the DN of rats” value (overall summary in words)?
Its value is “stronger effect in resisting the DN of rats”.

And the “activity in resisting the type II diabetic nephropathy, A8 compared with LM49” value (rat, in vivo)?
The value was “higher activity in resisting the type II diabetic nephropathy than the compound LM49”.
